pEC50: −log10 of the molar value.

The record followed here is patent US9840513B2 (AbbVie S.à.r.l., priority 2015, dated 2017).

Assay [1] deals with T1, F508delCFTR cell surface expression in CFBE41o-F508delCFTR-HRP cells (Homo sapiens, UniProt P13569, DEL508-508).
T1 construct: fused on or other part: Horseradish peroxidase (HRP) reporter inserted in the fourth exofacial (extracellular) loop of CFTR; expression is doxycycline-inducible
In words: Cell Surface Expression-Horse Radish Peroxidase (CSE-HRP) Assay. The following applies: for pEC50: CFBE41o-F508delCFTR-HRP cells, 18-24 hours at 33° C., 8-point curve, highest concentration 20 μM; for Maximum % activity (%): maximum at any tested concentration, normalized to on-plate positive control (3 μM). It counts as cell-based. In outline:
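CFBE41o- cells with HRP-tagged F508delCFTR, expression induced by 0.5 μg/mL doxycycline for 72 h at 37 °C, then compound for 18-24 h at 33 °C (8-point, 3-fold, top 20 μM). Surface HRP measured by luminol luminescence; % activity normalised to 3 μM positive-control corrector; EC50 from variable-slope sigmoidal fit, three replicate plates.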

The target in assay [2] is T2, F508delCFTR in primary hBE cells with F508del/F508del CFTR mutation (Homo sapiens, UniProt P13569, DEL508-508).
T2 construct: cells isolated from CF patients with the homozygous mutation; endogenous in cells; host or cells: primary human bronchial epithelial (hBE) cells from F508del/F508del CF patients
T2 sequence (P13569 with tags, fused parts or gaps DEL508-508): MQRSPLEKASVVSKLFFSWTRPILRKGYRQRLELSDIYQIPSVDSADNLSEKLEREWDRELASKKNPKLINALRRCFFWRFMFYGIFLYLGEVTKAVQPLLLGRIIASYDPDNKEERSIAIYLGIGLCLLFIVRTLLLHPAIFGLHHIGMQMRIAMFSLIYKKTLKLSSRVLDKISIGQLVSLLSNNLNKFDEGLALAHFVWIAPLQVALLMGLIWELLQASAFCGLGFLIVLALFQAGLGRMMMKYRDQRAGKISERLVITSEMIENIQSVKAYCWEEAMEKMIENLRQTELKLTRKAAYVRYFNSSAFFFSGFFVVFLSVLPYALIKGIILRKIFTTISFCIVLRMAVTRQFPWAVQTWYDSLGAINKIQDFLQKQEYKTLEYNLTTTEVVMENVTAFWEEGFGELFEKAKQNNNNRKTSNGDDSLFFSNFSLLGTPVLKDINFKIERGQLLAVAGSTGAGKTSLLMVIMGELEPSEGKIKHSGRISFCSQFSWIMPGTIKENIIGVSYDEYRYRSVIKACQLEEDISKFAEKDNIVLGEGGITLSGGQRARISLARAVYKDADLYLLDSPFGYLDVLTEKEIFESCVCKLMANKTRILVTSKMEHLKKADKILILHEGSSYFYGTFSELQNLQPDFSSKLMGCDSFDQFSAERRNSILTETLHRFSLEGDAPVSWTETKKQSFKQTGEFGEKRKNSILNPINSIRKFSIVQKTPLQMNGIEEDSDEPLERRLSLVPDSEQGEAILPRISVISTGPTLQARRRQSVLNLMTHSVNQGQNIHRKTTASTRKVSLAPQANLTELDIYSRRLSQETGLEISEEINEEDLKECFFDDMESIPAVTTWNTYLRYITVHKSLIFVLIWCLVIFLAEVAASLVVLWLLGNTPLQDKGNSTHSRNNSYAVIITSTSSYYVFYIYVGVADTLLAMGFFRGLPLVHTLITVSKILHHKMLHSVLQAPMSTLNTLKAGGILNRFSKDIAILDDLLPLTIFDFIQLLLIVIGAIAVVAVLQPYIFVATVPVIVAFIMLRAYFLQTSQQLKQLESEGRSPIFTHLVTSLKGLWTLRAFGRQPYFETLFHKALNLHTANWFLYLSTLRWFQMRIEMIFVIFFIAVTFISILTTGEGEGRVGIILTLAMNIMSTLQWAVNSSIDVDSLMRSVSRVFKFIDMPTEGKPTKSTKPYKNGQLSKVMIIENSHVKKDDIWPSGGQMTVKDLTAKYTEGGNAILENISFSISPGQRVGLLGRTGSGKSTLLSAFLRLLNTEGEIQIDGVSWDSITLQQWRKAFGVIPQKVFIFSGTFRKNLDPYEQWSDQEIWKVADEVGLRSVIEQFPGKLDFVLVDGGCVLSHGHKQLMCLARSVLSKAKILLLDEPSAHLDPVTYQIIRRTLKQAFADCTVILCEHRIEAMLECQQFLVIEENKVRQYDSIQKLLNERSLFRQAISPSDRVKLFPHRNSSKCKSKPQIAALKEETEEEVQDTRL
In words: Transepithelial Clamp Circuit on Human Bronchial Epithelial Cells Conductance Assay (hBE-TECC). Type of assay: cell-based. The settings on record: for pEC50: primary hBE cells F508del/F508del, 18-24 hours at 37° C., equivalent short circuit current, 6 concentrations; for Maximum % activity (%): relative to positive control (3 μM) coupled with control potentiator. In outline: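 Primary F508del/F508del hBE cells grown 35 days at air-liquid interface, treated basolaterally with correctors 18-24 h at 37° C. Ieq (Vt/Rt) at 36.5° C, pH 7.4, after benzamil, forskolin 10 μM, control potentiator, bumetanide; 6 concentrations normalized to DMSO and 3 μM positive-control corrector, EC50 by 4-parameter fit.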

T1 sequence (P13569 with tags, fused parts or gaps DEL508-508 limits assumed): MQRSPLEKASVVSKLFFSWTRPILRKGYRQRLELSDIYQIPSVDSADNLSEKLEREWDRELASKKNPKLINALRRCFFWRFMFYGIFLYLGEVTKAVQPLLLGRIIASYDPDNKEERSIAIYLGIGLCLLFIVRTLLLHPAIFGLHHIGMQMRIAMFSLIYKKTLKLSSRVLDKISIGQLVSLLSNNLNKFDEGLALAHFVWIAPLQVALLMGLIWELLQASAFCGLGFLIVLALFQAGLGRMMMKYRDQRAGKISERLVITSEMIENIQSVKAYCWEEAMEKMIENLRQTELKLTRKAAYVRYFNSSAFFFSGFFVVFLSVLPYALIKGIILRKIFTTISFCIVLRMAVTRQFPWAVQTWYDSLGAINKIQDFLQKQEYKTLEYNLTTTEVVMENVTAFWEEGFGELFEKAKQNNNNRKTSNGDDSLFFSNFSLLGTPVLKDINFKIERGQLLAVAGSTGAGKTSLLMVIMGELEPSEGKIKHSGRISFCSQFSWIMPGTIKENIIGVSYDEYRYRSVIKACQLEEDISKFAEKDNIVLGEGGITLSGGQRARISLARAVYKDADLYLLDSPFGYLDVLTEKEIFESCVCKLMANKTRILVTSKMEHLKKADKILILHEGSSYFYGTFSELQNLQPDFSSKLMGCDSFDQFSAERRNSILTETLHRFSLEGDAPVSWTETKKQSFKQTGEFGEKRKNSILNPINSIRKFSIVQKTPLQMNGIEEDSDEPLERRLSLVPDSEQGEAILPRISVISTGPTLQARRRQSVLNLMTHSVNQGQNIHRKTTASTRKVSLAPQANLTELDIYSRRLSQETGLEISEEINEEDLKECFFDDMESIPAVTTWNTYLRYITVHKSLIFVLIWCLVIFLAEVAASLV
T1 sequence (P13569 919-1480 limits assumed, stated change not applied): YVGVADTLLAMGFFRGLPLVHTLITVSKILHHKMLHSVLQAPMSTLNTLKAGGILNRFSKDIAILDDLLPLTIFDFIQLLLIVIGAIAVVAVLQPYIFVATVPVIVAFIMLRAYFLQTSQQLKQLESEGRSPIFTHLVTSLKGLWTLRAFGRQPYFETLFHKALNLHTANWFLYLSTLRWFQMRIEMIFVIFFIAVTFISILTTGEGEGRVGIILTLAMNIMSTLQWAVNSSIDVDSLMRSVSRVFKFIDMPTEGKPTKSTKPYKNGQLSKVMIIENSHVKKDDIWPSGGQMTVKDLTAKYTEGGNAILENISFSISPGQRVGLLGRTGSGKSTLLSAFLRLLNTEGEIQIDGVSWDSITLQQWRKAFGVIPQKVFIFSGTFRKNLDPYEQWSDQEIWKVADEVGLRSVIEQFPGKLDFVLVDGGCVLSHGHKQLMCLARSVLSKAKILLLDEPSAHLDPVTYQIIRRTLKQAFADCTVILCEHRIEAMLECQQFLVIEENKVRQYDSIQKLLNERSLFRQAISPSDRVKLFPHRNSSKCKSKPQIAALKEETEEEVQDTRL

The term pEC50 denotes the negative decadic logarithm of the EC50, by convention in mol/L. `COc1ccc2c(c1)OC(c1ccc(OC[C@@H](O)CO)nn1)C[C@H]2NC(=O)[C@@]1(C)COc2cc3c(cc21)OC(F)(F)O3` (stereo partly drawn) [Example 252, (7R)—N-[(4R)-2-{6-[(2S)-2,3-dihydroxypropoxy]pyridazin-3-yl}-7-methoxy-3,4-dihydro-2H-1-benzopyran-4-yl]-2,2-difluoro-7-methyl-6,7-dihydro-2H-furo[2,3-f][1,3]benzodioxole-7-carboxamide]: the pEC50 in assay [1] was 7.05; in assay [2], 7.49. The “Maximum % activity (%)” value in assay [1] is recorded as 110%; in assay [2] it was 106%.

Consider `C[C@]1(C(=O)N[C@@H]2C[C@H]([C@H]3CC[C@H](C(=O)N4C[C@H](O)[C@@H](O)C4)CC3)Oc3cc(OC(F)(F)F)ccc32)COc2cc3c(cc21)OC(F)(F)O3` [Example 256, (7R)—N-[(2R,4R)-2-{trans-4-[(3S,4S)-3,4-dihydroxypyrrolidine-1-carbonyl]cyclohexyl}-7-(trifluoromethoxy)-3,4-dihydro-2H-1-benzopyran-4-yl]-2,2-difluoro-7-methyl-6,7-dihydro-2H-furo[2,3-f][1,3]benzodioxole-7-carboxamide], for which, in assay [1], the pEC50 was 7.22 and the “Maximum % activity (%)” value came out at 168%. Besides, in assay [2], the pEC50 was 8.00 and the “Maximum % activity (%)” value came to 106%.

Regarding `C[C@]1(C(=O)N[C@@H]2C[C@H]([C@H]3CC[C@H](C(=O)NCC(O)CO)CC3)Oc3cc(OC(F)(F)F)ccc32)COc2cc3c(cc21)OC(F)(F)O3` (stereo partly drawn) [Example 260, (7R)—N-[(2R,4R)-2-{trans-4-[(2,3-dihydroxypropyl)carbamoyl]cyclohexyl}-7-(trifluoromethoxy)-3,4-dihydro-2H-1-benzopyran-4-yl]-2,2-difluoro-7-methyl-6,7-dihydro-2H-furo[2,3-f][1,3]benzodioxole-7-carboxamide], in assay [1], the pEC50 is 6.89 and the “Maximum % activity (%)” value is 174%. For the same compound, in assay [2], the pEC50 is 7.16 and the “Maximum % activity (%)” value is 129%.

As to `C[C@]1(C(=O)N[C@@H]2C[C@H]([C@H]3CC[C@H](C(=O)NCCO)CC3)Oc3cc(OC(F)(F)F)ccc32)COc2cc3c(cc21)OC(F)(F)O3` [Example 261, (7R)-2,2-difluoro-N-[(2R,4R)-2-{trans-4-[(2-hydroxyethyl)carbamoyl]cyclohexyl}-7-(trifluoromethoxy)-3,4-dihydro-2H-1-benzopyran-4-yl]-7-methyl-6,7-dihydro-2H-furo[2,3-f][1,3]benzodioxole-7-carboxamide], the pEC50 in assay [1] is 7.22; in assay [2] it was 7.68. Besides, the “Maximum % activity (%)” value in assay [1] turned out to be 157%; in assay [2], 104%.

Regarding `CCCN(CCO)C(=O)[C@H]1CC[C@H]([C@H]2C[C@@H](NC(=O)[C@@]3(C)COc4cc5c(cc43)OC(F)(F)O5)c3ccc(OC(F)(F)F)cc3O2)CC1` [Example 263, (7R)-2,2-difluoro-N-[(2R,4R)-2-{trans-4-[(2-hydroxyethyl)(propyl)carbamoyl]cyclohexyl}-7-(trifluoromethoxy)-3,4-dihydro-2H-1-benzopyran-4-yl]-7-methyl-6,7-dihydro-2H-furo[2,3-f][1,3]benzodioxole-7-carboxamide], the negative-log EC50 (pEC50) in assay [1] is 7.15; in assay [2] it was 8.40. Further, the “Maximum % activity (%)” value in assay [1] was 167%; in assay [2], 118%.

On to `COc1ccc2c(c1)O[C@@H]([C@H]1CC[C@H](C(=O)N3C[C@H](O)[C@@H](O)C3)CC1)C[C@H]2NC(=O)[C@@]1(C)COc2cc3c(cc21)OC(F)(F)O3` [Example 281, (7R)—N-[(2R,4R)-2-{trans-4-[(3S,4S)-3,4-dihydroxypyrrolidine-1-carbonyl]cyclohexyl}-7-methoxy-3,4-dihydro-2H-1-benzopyran-4-yl]-2,2-difluoro-7-methyl-6,7-dihydro-2H-furo[2,3-f][1,3]benzodioxole-7-carboxamide], for which the pEC50 in assay [1] is 6.33; in assay [2], 6.93. In addition, the figures for the “Maximum % activity (%)” value in assay [1] and in assay [2] were 154% and 134%, respectively.

Regarding `C[C@]1(C(=O)N[C@@H]2C[C@H](C3(C(=O)N4C[C@H](O)[C@@H](O)C4)CC3)Oc3cc(OC(F)(F)F)ccc32)COc2cc3c(cc21)OC(F)(F)O3` [Example 282, (7R)—N-[(2R,4R)-2-{1-[(3S,4S)-3,4-dihydroxypyrrolidine-1-carbonyl]cyclopropyl}-7-(trifluoromethoxy)-3,4-dihydro-2H-1-benzopyran-4-yl]-2,2-difluoro-7-methyl-6,7-dihydro-2H-furo[2,3-f][1,3]benzodioxole-7-carboxamide], in assay [1], the pEC50 is 5.73 and the “Maximum % activity (%)” value came out at 135%. For the same compound, in assay [2], the pEC50 is 6.55 and the “Maximum % activity (%)” value was determined as 100%.
